Laboratory results as given in ChEMBL document CHEMBL4425114, “Development of Novel Alkoxyisoxazoles as Sigma-1 Receptor Antagonists with Antinociceptive Efficacy” (J Med Chem, 2016).
Calls of active or inactive are those of the source. The rule behind the calls is not given here.

Key:
[1] = target: Sodium-dependent noradrenaline transporter (Homo sapiens, UniProt P23975); assay: Displacement of [3H]nisoxetine from human NET expressed in HEK293 cells measured after 30 mins; format: cell-based
[2] = target: T1, Sodium-dependent serotonin transporter (Homo sapiens, UniProt P31645); assay: biochemical; format: cell-based, HEK293
Target sequence in this assay (P31645 whole entry): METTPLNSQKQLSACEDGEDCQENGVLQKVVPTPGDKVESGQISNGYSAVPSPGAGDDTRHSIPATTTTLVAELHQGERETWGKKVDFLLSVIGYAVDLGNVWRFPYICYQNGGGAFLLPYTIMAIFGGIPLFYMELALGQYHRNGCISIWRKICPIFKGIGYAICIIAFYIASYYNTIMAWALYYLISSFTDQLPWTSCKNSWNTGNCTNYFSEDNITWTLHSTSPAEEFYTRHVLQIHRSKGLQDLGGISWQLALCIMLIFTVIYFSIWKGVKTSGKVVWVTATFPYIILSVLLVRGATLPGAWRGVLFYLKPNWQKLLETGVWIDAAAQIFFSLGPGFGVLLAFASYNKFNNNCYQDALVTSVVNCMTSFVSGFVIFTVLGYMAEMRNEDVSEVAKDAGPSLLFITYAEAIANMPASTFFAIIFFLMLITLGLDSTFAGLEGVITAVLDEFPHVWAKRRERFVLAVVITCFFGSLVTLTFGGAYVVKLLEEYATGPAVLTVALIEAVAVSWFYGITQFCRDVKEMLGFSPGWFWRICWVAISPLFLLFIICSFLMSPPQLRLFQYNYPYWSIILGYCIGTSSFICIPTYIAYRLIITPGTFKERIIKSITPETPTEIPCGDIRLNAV
Description: Displacement of [3H]citalopram from human SERT expressed in HEK293 cells measured after 30 mins

[3] = target: T1, Sodium-dependent serotonin transporter; details: HEK293, at 10 µM
Target sequence in this assay (P31645 whole entry, looked up): as the sequence (P31645 whole entry) above
Description: Displacement of [3H]citalopram from human SERT expressed in HEK293 cells at 10 uM measured after 30 mins

[4] = target: T2, Sodium-dependent dopamine transporter (Homo sapiens, UniProt Q01959); assay: Displacement of [3H]-WIN35428 from human DAT expressed in HEK293 cells at 10 uM measured after 30 mins; format: cell-based
T2 sequence (Q01959 whole entry): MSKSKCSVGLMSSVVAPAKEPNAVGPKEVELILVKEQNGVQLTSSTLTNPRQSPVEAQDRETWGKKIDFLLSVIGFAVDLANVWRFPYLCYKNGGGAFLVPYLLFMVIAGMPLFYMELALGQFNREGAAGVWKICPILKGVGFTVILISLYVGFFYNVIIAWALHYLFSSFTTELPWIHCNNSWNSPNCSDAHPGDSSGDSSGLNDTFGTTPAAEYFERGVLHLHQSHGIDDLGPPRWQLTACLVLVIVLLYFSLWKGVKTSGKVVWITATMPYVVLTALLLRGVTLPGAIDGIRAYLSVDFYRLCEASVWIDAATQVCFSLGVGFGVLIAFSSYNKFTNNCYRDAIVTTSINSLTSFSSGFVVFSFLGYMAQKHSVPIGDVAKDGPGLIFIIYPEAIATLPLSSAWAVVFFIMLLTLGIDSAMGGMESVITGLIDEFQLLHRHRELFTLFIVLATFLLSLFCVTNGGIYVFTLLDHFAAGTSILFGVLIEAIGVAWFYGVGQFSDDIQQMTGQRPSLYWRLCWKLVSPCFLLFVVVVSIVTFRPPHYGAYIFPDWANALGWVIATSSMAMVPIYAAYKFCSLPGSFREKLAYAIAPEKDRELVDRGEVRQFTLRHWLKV

[5] = target: T2, Sodium-dependent dopamine transporter
Description: Displacement of [3H]-WIN35428 from human DAT expressed in HEK293 cells measured after 30 mins

[6] = target: T3, Sigma intracellular receptor 2 (Rattus norvegicus, UniProt Q5U3Y7); assay: Displacement of [3H]DTG from rat brain sigma2 receptor by PDSP assay
T3 sequence (Q5U3Y7 whole entry): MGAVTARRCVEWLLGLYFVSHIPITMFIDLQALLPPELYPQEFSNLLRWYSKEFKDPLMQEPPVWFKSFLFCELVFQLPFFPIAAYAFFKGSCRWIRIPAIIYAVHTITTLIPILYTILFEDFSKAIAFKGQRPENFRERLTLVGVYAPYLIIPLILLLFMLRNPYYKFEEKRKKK

[7] = target: Sigma non-opioid intracellular receptor 1 (Rattus norvegicus) (UniProt Q9R0C9); assay: Displacement of [3H]-pentazocine from rat brain sigma1 receptor at 10 uM by PDSP assay
Sigma non-opioid intracellular receptor 1 (Rattus norvegicus), sequence (Q9R0C9 whole entry): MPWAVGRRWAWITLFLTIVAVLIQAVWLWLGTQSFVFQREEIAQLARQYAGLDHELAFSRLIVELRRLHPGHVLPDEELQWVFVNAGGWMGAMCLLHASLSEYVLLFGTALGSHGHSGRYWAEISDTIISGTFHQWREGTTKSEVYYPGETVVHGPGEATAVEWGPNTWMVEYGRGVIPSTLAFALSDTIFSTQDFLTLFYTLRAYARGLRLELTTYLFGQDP

[8] = target: Sigma non-opioid intracellular receptor 1 (Rattus norvegicus, UniProt Q9R0C9); assay: Displacement of [3H]-pentazocine from rat brain sigma1 receptor by PDSP assay
Sigma non-opioid intracellular receptor 1, sequence (Q9R0C9 whole entry): as above

[9] = Permeability of the compound after 18 hrs by PAMPA assay; format: ADME; details: read-out: permeability
[10] = Toxicity in Kun Ming mouse assessed as decrease in rotarod latency at 40 mg/kg, ip measured after 60 to 120 mins by rotarod test relative to vehicle-treated control; format: organism-based; details: in vivo
[11] = system: Mus musculus; assay: Antinociceptive activity in Kun Ming mouse assessed as reduction in paw licking and flinching time at 80 mg/kg, ip administered 15 mins prior to formalin challenge measured up to 45 mins post formalin dosing relative to vehicle-treated control; format: functional, organism-based
[12] = target: Sigma non-opioid intracellular receptor 1 (Cavia porcellus) (UniProt Q60492); assay: Binding affinity to sigma1 receptor form guinea pig brain membrane in presence of phenytoin […]
Sigma non-opioid intracellular receptor 1 (Cavia porcellus), sequence (Q60492 whole entry): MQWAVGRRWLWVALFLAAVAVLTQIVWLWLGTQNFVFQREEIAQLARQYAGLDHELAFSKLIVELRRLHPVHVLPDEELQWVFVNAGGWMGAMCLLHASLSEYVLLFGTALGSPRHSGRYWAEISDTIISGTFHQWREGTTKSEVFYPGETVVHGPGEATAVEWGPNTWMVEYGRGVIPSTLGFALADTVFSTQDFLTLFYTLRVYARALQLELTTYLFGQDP

[13] = Mean residence time in Kun Ming mouse brain at 40 mg/kg, po by LC-MS/MS analysis; format: ADME, organism-based
[14] = Elimination rate constant in Kun Ming mouse plasma at 40 mg/kg, po by LC-MS/MS analysis; format: ADME, organism-based
[15] = AUMC (0 to infinity) in Kun Ming mouse brain at 40 mg/kg, po by LC-MS/MS analysis; format: ADME, organism-based; details: in vivo
[16] = Cmax in Kun Ming mouse plasma at 40 mg/kg, po by LC-MS/MS analysis; format: ADME, organism-based; parameters: dose 40 mg/kg, route oral
[17] = AUC (0 to infinity) in Kun Ming mouse brain at 40 mg/kg, po by LC-MS/MS analysis; format: ADME, organism-based; parameters: dose 40 mg/kg, route oral, time infinity; details: in vivo
[18] = Mean residence time in Kun Ming mouse plasma at 40 mg/kg, po by LC-MS/MS analysis; format: ADME, organism-based
[19] = AUMC (0 to infinity) in Kun Ming mouse plasma at 40 mg/kg, po by LC-MS/MS analysis; format: ADME, organism-based; details: in vivo
[20] = AUC (0 to 8 hrs) in Kun Ming mouse plasma at 40 mg/kg, po by LC-MS/MS analysis; format: ADME, organism-based; parameters: time < 8 hr, dose 40 mg/kg, route oral
[21] = Toxicity in Kun Ming mouse assessed as decrease in rotarod latency at 40 and 80 mg/kg, ip measured after 60 to 120 mins by rotarod test relative to vehicle-treated control; format: organism-based; details: in vivo
[22] = Half life in Kun Ming mouse brain at 40 mg/kg, po by LC-MS/MS analysis; format: ADME, organism-based
[23] = AUMC (0 to 8 hrs) in Kun Ming mouse plasma at 40 mg/kg, po by LC-MS/MS analysis; format: ADME, organism-based; details: in vivo
[24] = Ratio of Cmax in brain to plasma of Kun Ming mouse at 40 mg/kg, po; format: ADME, organism-based
[25] = Half life in Kun Ming mouse plasma at 40 mg/kg, po by LC-MS/MS analysis; format: ADME, organism-based
[26] = Cmax in Kun Ming mouse brain at 40 mg/kg, po by LC-MS/MS analysis; format: ADME, organism-based; parameters: dose 40 mg/kg, route oral
[27] = AUC (0 to infinity) in Kun Ming mouse plasma at 40 mg/kg, po by LC-MS/MS analysis; format: ADME, organism-based; parameters: dose 40 mg/kg, route oral, time infinity
[28] = Elimination rate constant in Kun Ming mouse brain at 40 mg/kg, po by LC-MS/MS analysis; format: ADME, organism-based
[29] = system: Mus musculus; assay: Antinociceptive activity in Kun Ming mouse assessed as reduction in paw licking and flinching time at 40 mg/kg, ip administered 15 mins prior to formalin challenge measured after 11 to 45 mins post formalin dosing relative to vehicle-treated control; format: functional, organism-based
[30] = AUC (0 to 8 hrs) in Kun Ming mouse brain at 40 mg/kg, po by LC-MS/MS analysis; format: ADME, organism-based; parameters: time < 8 hr, dose 40 mg/kg, route oral; details: in vivo
[31] = Tmax in Kun Ming mouse brain at 40 mg/kg, po by LC-MS/MS analysis; format: ADME, organism-based
[32] = AUMC (0 to 8 hrs) in Kun Ming mouse brain at 40 mg/kg, po by LC-MS/MS analysis; format: ADME, organism-based; details: in vivo
[33] = Ratio of AUC (0 to 8 hrs) in brain to plasma of Kun Ming mouse at 40 mg/kg, po; format: ADME, organism-based; details: read-out: Ratio AUC
[34] = Ratio of AUC (0 to infinity) in brain to plasma of Kun Ming mouse at 40 mg/kg, po; format: ADME, organism-based; details: read-out: Ratio AUC
[35] = system: Mus musculus; assay: Antinociceptive activity in Kun Ming mouse assessed as reduction in paw licking and flinching time at 40 mg/kg, ip administered 15 mins prior to formalin challenge measured after 0 to 10 mins post formalin dosing relative to vehicle-treated control; format: functional, organism-based
[36] = Tmax in Kun Ming mouse plasma at 40 mg/kg, po by LC-MS/MS analysis; format: ADME, organism-based
[37] = target: T4, Sigma intracellular receptor 2 (Rattus norvegicus) (UniProt Q5U3Y7); assay: Displacement of [3H]DTG from rat brain sigma2 receptor at 10 uM by PDSP assay
T4 sequence (whole entry): T3 sequence (Q5U3Y7 whole entry)

Sodium-dependent noradrenaline transporter, sequence (P23975 whole entry): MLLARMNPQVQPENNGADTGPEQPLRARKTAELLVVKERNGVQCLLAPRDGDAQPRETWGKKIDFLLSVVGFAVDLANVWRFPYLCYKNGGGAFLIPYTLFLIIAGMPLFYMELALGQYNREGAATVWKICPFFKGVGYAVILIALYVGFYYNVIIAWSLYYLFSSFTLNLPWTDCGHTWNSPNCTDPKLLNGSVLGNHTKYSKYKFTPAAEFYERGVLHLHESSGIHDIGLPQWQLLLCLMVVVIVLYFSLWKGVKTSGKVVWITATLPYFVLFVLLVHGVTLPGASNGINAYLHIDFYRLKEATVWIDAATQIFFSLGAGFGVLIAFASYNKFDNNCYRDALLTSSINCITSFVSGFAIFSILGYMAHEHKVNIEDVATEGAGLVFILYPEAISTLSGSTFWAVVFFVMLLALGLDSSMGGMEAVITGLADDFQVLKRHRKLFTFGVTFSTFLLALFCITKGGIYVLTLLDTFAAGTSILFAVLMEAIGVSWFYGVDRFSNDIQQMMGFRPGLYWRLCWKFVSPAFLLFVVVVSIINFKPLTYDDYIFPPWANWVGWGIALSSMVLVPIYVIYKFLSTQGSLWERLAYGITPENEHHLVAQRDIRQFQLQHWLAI

With Cl.c1ccc(OCc2cc(N3CCNCC3)no2)cc1 the Ki [1] was 163 nM, the Ki [2] was > 10000 nM and the inhibition [3] was < 50%. The inhibition [4] was > 50%, the Ki [5] was 497 nM and the Ki [6] was 221 nM. The inhibition [7] was > 50%, the Ki [8] was 5.3 nM and the Papp at 18 h [9] was 7.36 ×10⁻⁶ cm/s.
For Fc1ccc(C(OCCN2CCN(CCCc3ccccc3)CC2)c2ccc(F)cc2)cc1, the inhibition [4] was > 50%.
For CC(C)C[C@H](CN)CC(=O)O [PREGABALIN], the Activity [10] was “Toxic”.
For Cc1cc(OCCN2CCOCC2)nn1-c1ccc2ccccc2c1, the Activity [11] was “Active”, the Activity [12] was “inactive” and the Papp at 18 h [9] was 2 to 4 ×10⁻⁶ cm/s.
CN1CCC[C@H]1COc1cc(COc2ccccc2)on1.Cl showed a Ki [6] of 665 nM, a Ki [8] of 3.4 nM and a Papp at 18 h [9] of 2 to 4 ×10⁻⁶ cm/s.
For Fc1ccccc1OCc1cc(OC[C@@H]2CCCN2)no1, the Ki [1] was 1080 nM, the Ki [2] was > 10000 nM and the inhibition [3] was < 50%. For the same compound, the inhibition [4] was < 50%, the Ki [5] was > 10000 nM and the Ki [6] was 396 nM. The inhibition [7] was > 50% and the Ki [8] was 6 to 6.1 nM.
In the case of Clc1ccccc1OCc1cc(OC[C@@H]2CCCN2)no1, the Ki [1] is reported as 2110 nM, the Ki [2] is reported as 2950 nM and the inhibition [3] is reported as > 50%. For the same compound, the inhibition [4] was < 50%, the Ki [5] was > 10000 nM and the Ki [6] was 165 nM. The inhibition [7] was > 50% and the Ki [8] was 2.7 nM.
With CN(CCOc1cc(COc2ccccc2)on1)C1CCC1 the Activity [12] was “inactive”, the Ki [6] was 307 nM and the Ki [8] was 1.8 nM.
In the case of c1ccc(OCc2cc(OC[C@@H]3CCCN3)no2)cc1, the Activity [12] is reported as “inactive” and the Papp at 18 h [9] is reported as 2 to 4 ×10⁻⁶ cm/s.
In the case of Cl.Fc1cccc(OCc2cc(OC[C@@H]3CCCN3)no2)c1, the Activity [12] is reported as “inactive”, the Ki [6] is reported as 277 nM and the Ki [8] is reported as 1.4 nM. For the same compound, the Papp at 18 h [9] was 2 to 4 ×10⁻⁶ cm/s.
In the case of CN(CCOc1cc(COc2ccccc2)on1)CC1CC1.Cl, the MRT [13] is reported as 2.32 h, the k el [14] is reported as 7.31e-05 s⁻¹ and the Ki [1] is reported as > 10000 nM. It also gave an AUMC [15] of 935 hr.hr.ng/g, a Cmax [16] of 193 ng/mL and an AUC [17] of 403 ng·h/g. The Ki [2] was > 10000 nM, the MRT [18] was 1.39 h and the AUMC [19] was 157 hr.hr.ng/ml. The AUC(0-t) at 8 h [20] was 108 ng·h/mL, the inhibition [3] was < 50% and the Activity [21] was “Non-Toxic”. For the same compound, the Activity [11] was “Active”, the half-life [22] was 2.52 h and the inhibition [4] was < 50%. For the same compound, the AUMC [23] was 91.5 hr.hr.ng/ml, the Kp [24] was 2 and the Ki [5] was > 10000 nM. The half-life [25] was 2.64 h, the Cmax [26] was 395 ng/g and the Activity [12] was “inactive”. The AUC(0-inf) [27] was 113 ng·h/mL, the Ki [6] was 225 nM and the k el [28] was 7.67e-05 s⁻¹. The inhibition [7] was > 50%, the Activity [29] was “Active” and the Ki [8] was 0.8 nM. For the same compound, the AUC [30] was 373 ng·h/g, the Tmax [31] was 0.167 h and the Papp at 18 h [9] was 2 to 4 ×10⁻⁶ cm/s. It also gave an AUMC [32] of 578 hr.hr.ng/g, a Kp [33] of 3.6 and a Kp [34] of 3.6. For the same compound, the Activity [35] was “inactive” and the Tmax [36] was 0.167 h.
In the case of CN(CCOc1cc(COc2ccccc2)on1)C1CCCCC1, the Ki [1] is reported as > 10000 nM, the Ki [2] is reported as > 10000 nM and the inhibition [3] is reported as < 50%. For the same compound, the inhibition [4] was < 50%, the Ki [5] was > 10000 nM and the Ki [6] was 18.7 nM. The inhibition [7] was > 50% and the Ki [8] was 0.3 nM.
In the case of Clc1cccc(OCc2cc(OC[C@@H]3CCCN3)no2)c1.O=C(O)C(F)(F)F, the inhibition [37] is reported as < 50%, the Activity [12] is reported as “inactive” and the Ki [6] is reported as > 10000 nM. The Ki [8] was 2.6 nM and the Papp at 18 h [9] was 2 to 4 ×10⁻⁶ cm/s.
